Measured values published in US9174980B2, “Heterocyclic compounds as inhibitors of leukotriene production” (Boehringer Ingelheim International GmbH, priority 2012, dated 2015).

Key:
[1] = target: T1, recombinant human FLAP protein (Homo sapiens, UniProt P20292); assay: FLAP binding assay (Scintillation Proximity Assay, displacement of [125I]L-691,831); settings: read-out: Human FLAP SPA Binding (IC50 nM)
T1 construct: made in house; host or cells: Sf9 insect cells (membrane fraction, 100,000 x g pellet)
T1 sequence (P20292 1-161): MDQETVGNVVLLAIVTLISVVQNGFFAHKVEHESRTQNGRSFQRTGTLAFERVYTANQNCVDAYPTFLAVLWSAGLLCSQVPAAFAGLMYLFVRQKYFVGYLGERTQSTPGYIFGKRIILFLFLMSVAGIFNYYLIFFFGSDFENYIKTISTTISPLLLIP
Method in brief: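 Scintillation proximity displacement format: 0.08 nM iodinated MK-591 analog [125I]L-691,831 competes with test compound for human FLAP in sf9 insect-cell membranes (5 μg/well, WGA beads), 2 h with shaking, pH 7.5 Tris buffer. 10 μM cold L-691,831 defines non-specific binding.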

[2] = test system: synthesis of LTB4 in human whole blood; assay: Human whole blood assay (calcimycin-stimulated LTB4 synthesis); type: cell-based; settings: Homo sapiens; read-out: Human Whole Blood LTB4 Assay for FLAP (IC50 nM)
Method in brief: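 Steps: compound plus heparinized human whole blood, 15 min at 37° C; add calcimycin to 20 μM final; incubate another 30 min at 37° C; centrifuge at low speed and collect plasma; measure LTB4 with a homogeneous time-resolved fluorescence immunoassay.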

IC50 [1]	IC50 [2]	SMILES
0.7 nM	3000 nM	CC(C)C(C)(c1ccc(-c2cnc(N)nc2)cc1)c1c[nH]c2c(C(=O)O)cccc12 (stereo not shown) [Example 84, 3-[1-[4-(2-aminopyrimidin-5-yl)phenyl]-1,2-dimethyl-propyl]-1H-indole-7-carboxylic acid]
0.97 nM	300 nM	CC(C)C(C)(c1ccc(-c2cnc(N)nc2)cc1)c1c[nH]c2cc(S(C)(=O)=O)ccc12 (stereo not shown) [Example 85, 5-(4-{3-methyl-2-[6-(methylsulfonyl)-1H-indol-3-yl]butan-2-yl}phenyl)pyrimidin-2-amine]
1.4 nM	230 nM	Cc1[nH]c2ccccc2c1C(C)(c1ccc(-c2cnc(N)nc2)cc1)C(C)C (stereo not shown) [Example 86, 5-{4-[3-methyl-2-(2-methyl-1H-indol-3-yl)butan-2-yl]phenyl}pyrimidin-2-amine]
1.6 nM	400 nM	Nc1ncc(-c2ccc(C3(c4c[nH]c5c(F)cccc45)CCC3)cc2)cn1 [Example 87, 5-{4-[1-(7-fluoro-1H-indol-3-yl)cyclobutyl]phenyl}pyrimidin-2-amine]
1.7 nM	430 nM	Nc1ncc(-c2ccc(C3(c4c[nH]c5ccccc45)CCCC3)cc2)cn1 [Example 88, 5-{4-[1-(1H-indol-3-yl)cyclopentyl]phenyl}pyrimidin-2-amine]
12 nM	2200 nM	Nc1ncc(-c2ccc(C3(c4c[nH]c5ccccc45)CCCCC3)cc2)cn1 [Example 89, 5-{4-[1-(1H-indol-3-yl)cyclohexyl]phenyl}pyrimidin-2-amine]
0.75 nM	170 nM	CS(=O)(=O)c1ccc2c(C3(c4ccc(-c5cnc(N)nc5)cc4)CCC3)c[nH]c2c1 [Example 90, 5-(4-{1-[6-(methylsulfonyl)-1H-indol-3-yl]cyclobutyl}phenyl)pyrimidin-2-amine]
2.7 nM	230 nM	CCC(C)(c1ccc(-c2cnc(N)nc2)cc1)c1c[nH]c2ccccc12 (stereo not shown) [Example 91, 5-{4-[2-(1H-indol-3-yl)butan-2-yl]phenyl}pyrimidin-2-amine]
9.1 nM	840 nM	Nc1ncc(-c2ccc(C3(c4nc(-c5cccnc5)no4)CCC3)cc2)cn1 [Example 92, 5-(4-{1-[3-(pyridin-3-yl)-1,2,4-oxadiazol-5-yl]cyclobutyl}phenyl)pyrimidin-2-amine]
29 nM	> 5000 nM	Nc1ncc(-c2ccc(C3(c4nnc(-c5ccccc5)o4)CCC3)cc2)cn1 [Example 93, 5-{4-[1-(5-phenyl-1,3,4-oxadiazol-2-yl)cyclobutyl]phenyl}pyrimidin-2-amine]
120 nM	2800 nM	Nc1ncc(-c2ccc(C3(c4nnc(-c5cccnc5)o4)CCC3)cc2)cn1 [Example 94, 5-(4-{1-[5-(pyridin-3-yl)-1,3,4-oxadiazol-2-yl]cyclobutyl}phenyl)pyrimidin-2-amine]
5 nM	960 nM	Cn1cc(C2(c3ccc(-c4cnc(N)nc4)cc3)CCC2)c2cccnc21 [Example 95, 5-{4-[1-(1-methyl-1H-pyrrolo[2,3-b]pyridin-3-yl)cyclobutyl]phenyl}pyrimidin-2-amine]
1.4 nM	240 nM	CC(C)C(C)(c1ccc(-c2cnc(N)nc2)cc1)c1n[nH]c(-c2ccccc2)n1 (stereo not shown) [Example 96, 5-{4-[3-methyl-2-(5-phenyl-1H-1,2,4-triazol-3-yl)butan-2-yl]phenyl}pyrimidin-2-amine]
14 nM	4100 nM	CC(C)C(C)(c1ccc(-c2cnc(N)nc2)cc1)c1nnc(-c2ccccc2)o1 (stereo not shown) [Example 97, 5-{4-[3-methyl-2-(5-phenyl-1,3,4-oxadiazol-2-yl)butan-2-yl]phenyl}pyrimidin-2-amine]
0.6 nM	360 nM	CC(C)C(C)(c1ccc(-c2cnc(N)nc2)cc1)c1c[nH]c2c(C(=O)N3CCC(O)C3)cccc12 (stereo not shown) [Example 98, (3-{2-[4-(2-aminopyrimidin-5-yl)phenyl]-3-methylbutan-2-yl}-1H-indol-7-yl)(3-hydroxypyrrolidin-1-yl)methanone]
0.93 nM	1600 nM	CC(C)C(C)(c1ccc(-c2cnc(N)nc2)cc1)c1c[nH]c2c(C(=O)N(C)CCO)cccc12 (stereo not shown) [Example 99, 3-[1-[4-(2-aminopyrimidin-5-yl)phenyl]-1,2-dimethyl-propyl]-N-(2-hydroxyethyl)-N-methyl-1H-indole-7-carboxamide]
18 nM	2100 nM	COc1cncc(-c2ccc(C(c3ncc(-c4cnc(N)nc4)s3)C(C)C)cc2)c1 (stereo not shown) [Example 100]
12 nM	1400 nM	CC(C)C(C)(c1ccc(-c2cnc(N)nc2)cc1)c1nc(-c2cccnc2)no1 (stereo not shown) [Example 101, 5-(4-{3-methyl-2-[3-(pyridin-3-yl)-1,2,4-oxadiazol-5-yl]butan-2-yl}phenyl)pyrimidin-2-amine]

IC50 [1]	IC50 [2]	SMILES
3.7 nM	900 nM	Nc1ncc(-c2ccc(C3(c4nnc(-c5cccnc5)[nH]4)CCC3)cc2)cn1 [Example 102, 5-(4-{1-[5-(pyridin-3-yl)-4H-1,2,4-triazol-3-yl]cyclobutyl}phenyl)pyrimidin-2-amine]
2.5 nM	160 nM	Nc1ncc(-c2ccc(C3(c4c[nH]c5ncccc45)CCC3)cc2)cn1 [Example 103, 5-{4-[1-(1H-pyrrolo[2,3-b]pyridin-3-yl)cyclobutyl]phenyl}pyrimidin-2-amine]
8.6 nM	1900 nM	CC(C)C(C)(c1ccc(-c2cnc(N)nc2)cc1)c1nc2ccccc2[nH]1 (stereo not shown) [Example 104, 5-{4-[2-(1H-benzimidazol-2-yl)-3-methylbutan-2-yl]phenyl}pyrimidin-2-amine]
91 nM	> 5000 nM	CN(CCO)C(=O)c1ccc2[nH]cc(C3(c4ccc(-c5cnc(N)nc5)cc4)CCC3)c2c1 [Example 105, 3-{1-[4-(2-aminopyrimidin-5-yl)phenyl]cyclobutyl}-N-(2-hydroxyethyl)-N-methyl-1H-indole-5-carboxamide]
0.91 nM	4100 nM	Nc1ncc(-c2ccc(C3(c4c[nH]c5cc(C(=O)N6CCC(O)C6)ccc45)CCC3)cc2)cn1 (stereo not shown) [Example 106, (3-{1-[4-(2-aminopyrimidin-5-yl)phenyl]cyclobutyl}-1H-indol-6-yl)(3-hydroxypyrrolidin-1-yl)methanone]
1.2 nM	180 nM	Nc1ncc(-c2ccc(C3(c4c[nH]c5c(C(=O)N6CCC(O)C6)cccc45)CCC3)cc2)cn1 (stereo not shown) [Example 107, (3-{1-[4-(2-aminopyrimidin-5-yl)phenyl]cyclobutyl}-1H-indol-7-yl)(3-hydroxypyrrolidin-1-yl)methanone]
3 nM	360 nM	Nc1ncc(-c2ccc(C3(c4c[nH]c5cccnc45)CCC3)cc2)cn1 [Example 108, 5-{4-[1-(1H-pyrrolo[3,2-b]pyridin-3-yl)cyclobutyl]phenyl}pyrimidin-2-amine]
1.3 nM	71 nM	Nc1ncc(-c2ccc(C3(c4c[nH]c5cnccc45)CCC3)cc2)cn1 [Example 109, 5-{4-[1-(1H-pyrrolo[2,3-c]pyridin-3-yl)cyclobutyl]phenyl}pyrimidin-2-amine]
87 nM	1500 nM	Nc1ncc(-c2ccc(C3(c4c[nH]c5ccncc45)CCC3)cc2)cn1 [Example 110, 5-{4-[1-(1H-pyrrolo[3,2-c]pyridin-3-yl)cyclobutyl]phenyl}pyrimidin-2-amine]
1.5 nM	> 5000 nM	Nc1ncc(-c2ccc(C3(c4cn(CCO)c5ccccc45)CCC3)cc2)cn1 [Example 111, 2-(3-{1-[4-(2-aminopyrimidin-5-yl)phenyl]cyclobutyl}-1H-indol-1-yl)ethanol]
3.2 nM	570 nM	CC(C)C(C)(c1ccc(-c2cnc(N)nc2)cc1)c1nc2ccccc2o1 (stereo not shown) [Example 112, 5-{4-[2-(1,3-benzoxazol-2-yl)-3-methylbutan-2-yl]phenyl}pyrimidin-2-amine]
1.1 nM	100 nM	Nc1ncc(-c2ccc(C3(c4c[nH]c5c(C(=O)N6CC(O)C6)cccc45)CCC3)cc2)cn1 [Example 113, (3-{1-[4-(2-aminopyrimidin-5-yl)phenyl]cyclobutyl}-1H-indol-7-yl)(3-hydroxyazetidin-1-yl)methanone]
2.3 nM	380 nM	Nc1ncc(-c2ccc(C3(c4c[nH]c5c(C(=O)N6CCS(=O)(=O)CC6)cccc45)CCC3)cc2)cn1 [Example 114]
2.6 nM	1100 nM	CN(CCO)C(=O)c1cccc2c(C3(c4ccc(-c5cnc(N)nc5)cc4)CCC3)c[nH]c12 [Example 115, 3-{1-[4-(2-aminopyrimidin-5-yl)phenyl]cyclobutyl}-N-(2-hydroxyethyl)-N-methyl-1H-indole-7-carboxamide]
2.5 nM	270 nM	COCCN(C)C(=O)c1cccc2c(C3(c4ccc(-c5cnc(N)nc5)cc4)CCC3)c[nH]c12 [Example 116, 3-{1-[4-(2-aminopyrimidin-5-yl)phenyl]cyclobutyl}-N-(2-methoxyethyl)-N-methyl-1H-indole-7-carboxamide]
1.1 nM	30 nM	NC(=O)c1cccc2c(C3(c4ccc(-c5cnc(N)nc5)cc4)CCC3)c[nH]c12 [Example 117, 3-{1-[4-(2-aminopyrimidin-5-yl)phenyl]cyclobutyl}-1H-indole-7-carboxamide]
1.6 nM	69 nM	Nc1ncc(-c2ccc(C3(c4c[nH]c5ccccc45)CCC3)cc2)cc1CO [Example 118, [2-amino-5-[4-[1-(1H-indol-3-yl)cyclobutyl]phenyl]-3-pyridyl]methanol]
